One test deals with T1, PDE5 (bovine aorta) (Bos taurus, UniProt Q28156).
T1 construct: from tissue; host or cells: bovine aorta
Description: Inhibitory effect on cGMP-PDE (one-step assay), enzyme from bovine aorta. It counts as biochemical. The note with it: vs. bovine aorta (footnote 1). As for the experimental part: (§1) CGMP-PDE activity of compounds of the present invention was measured using a one-step assay adapted from Wells et al., Biochim. Biophys. Acta, 384, 430 (1975). The reaction medium contained 50 mM Tris-HCl, pH 7.5, 5 mM magnesium acetate, 250 μg/ml 5′-Nucleotidase, 1 mM EGTA, and 0.15 μM 8-[H^3]-cGMP. Unless otherwise indicated, the enzyme used was a human recombinant PDE5 (ICOS Corp., Bothell, Wash.).
(§2) Compounds of the invention were dissolved in DMSO finally present at 2% in the assay.
As a reminder, the IC50 is the concentration needed to halve the response being measured. For `COc1ccc(C2c3[nH]c4ccccc4c3CC3C(=O)N(Cc4ccccc4)C(=O)CN32)cc1` (stereo not drawn) [Example 2, 2-Benzyl-6-(4-methoxyphenyl)-6,7,12,12a-tetrahydro-pyrazino[1′,2′:1,6]pyrido[3,4-b]indole-1,3-dione], the midpoint of inhibition, the IC50, lay at 340 nM. Still for that read-out and setting: to `O=C1CC(=O)N2CCc3c([nH]c4ccccc34)C2C1` (stereo not drawn) [Example 8, 6,7,12,12b-Tetrahydro-1H-indolo[2,3-a]-quinolizine-2,4-dione] belongs 250 nM; to `COc1cc2c(cc1O)CN1CCc3c([nH]c4ccccc34)C1C2` (stereo not drawn) [Example 15, 2-Methoxy-5,7,8,13,13b,14-hexahydroindolo-[2′,3′:3,4]pyrido[1,2-b]isoquinolin-3-ol], 300 nM.

Compound `O=C1Nc2ccccc2C2c3[nH]c4ccccc4c3CCN12` (stereo not drawn) [Example 16, 7,8,13,13b-Tetrahydro-5H-5,6a,13-triazaindeno-[1,2-c]phenanthren-6-one] showed an IC50 of 900 nM. `Cn1c2ccccc2c2c(=O)n3c(cc21)-c1[nH]c2ccccc2c1CC3` [Example 18] registered an IC50 of 70 nM.

The target in a further test is human recombinant PDE5 (Homo sapiens, UniProt O76074). The experiment in a line: Inhibitory effect on cGMP-PDE (one-step assay, 8-[H3]-cGMP), human recombinant PDE5. It counts as biochemical.
Conditions: not given
As for the experimental part: The compounds of the present invention were tested for an ability to inhibit PDE5. The ability of a compound to inhibit PDE5 activity is related to the IC50 yalue for the compound, i.e., the concentration of inhibitor required for 50% inhibition of enzyme activity. The IC50 value for compounds of the present invention were determined using recombinant human PDE5. […]
Cell pellets (29 g) were thawed on ice with an equal volume of Lysis Buffer (25 mM Tris HCl, pH 8, 5 mM MgCl2, 0.25 mM DTT, 1 mM benzamidine, and 10 μM ZnSO4). Cells were lysed in a Microfluidizer® (Microfluidics Corp.) using nitrogen at 20,000 psi. The lysate was centrifuged and filtered through 0.45 μm disposable filters. The filtrate was applied to a 150 mL column of Q SEPHAROSE® Fast-Flow (Pharmacia). The column was washed with 1.5 volumes of Buffer A (20 mM Bis-Tris Propane, pH 6.8, 1 mM MgCl2, 0.25 mM DTT, 10 μM ZnSO4) and eluted with a step gradient of 125 mM NaCl in Buffer A followed by a linear gradient of 125–1000 mM NaCl in Buffer A. Active fractions from the linear gradient were applied to a 180 mL hydroxyapatite column in Buffer B (20 mM Bis-Tris Propane (pH 6.8), 1 mM MgCl2, 0.25 mM DTT, 10 μM ZnSO4, and 250 mM KCl). After loading, the column was washed with 2 volumes of Buffer B and eluted with a linear gradient of 0–125 mM potassium phosphate in Buffer B. Active fractions were pooled, precipitated with 60% ammonium sulfate, and resuspended in Buffer C (20 mM Bis-Tris Propane, pH 6.8, 125 mM NaCl, 0.5 mM DTT, and 10 μM ZnSO4). The pool was applied to a 140 mL column of SEPHA-CRYL® S-300 HR and eluted with Buffer C. Active fractions were diluted to 50% glycerol and stored at −20° C.
as §1, §2
Take `O=C1COC[C@@H]2Cc3c([nH]c4ccccc34)[C@H](c3ccc4c(c3)OCO4)N12` (racemic) [Example 3, (+−,cis)-10-Benzo[1,3]dioxol-5-yl-5a,6,10,11-tetrahydro-5H-7-oxa-9a,11-diazabenzo[b]-fluoren-9-one]: the IC50 was 70 nM.

Take `COc1ccc([C@H]2c3[nH]c4ccccc4c3C[C@H]3COCC(=O)N32)cc1` (racemic) [Example 4, (+−,cis)-10-(4-Methoxyphenyl)-5a,6,10,11-tetrahydro-5H-7-oxa-9a,11-diazabenzo[b]fluoren-9-one]: the concentration for half-maximal inhibition (IC50) was determined as 300 nM.

On to `O=C1CCC(=O)N2[C@H](c3ccc4c(c3)OCO4)c3[nH]c4ccccc4c3C[C@@H]12` (racemic) [Example 6, (+−,trans)-6-Benzo[1,3]dioxol-5-yl-5,6,9,10,11a,12-hexahydroindolo[3,2-b]quinolizine-8,11-dione], for which the IC50 came to 550 nM. Regarding `CN1CN2[C@H](c3ccc4c(c3)OCO4)c3[nH]c4ccccc4c3C[C@@H]2C(=O)N1C` [Example 1, (5aR,10R)-10-Benzo[1,3]dioxol-5-yl-7,8-dimethyl-5,5a,8,9,10,11-hexahydro-7H-7,8,9a,11-tetraazabenzo[b]floren-6-one], the IC50 was 93 nM.

In the case of `COC(=O)C1CC(=O)N2[C@H](c3ccc4c(c3)OCO4)c3[nH]c4ccccc4c3C[C@@H]2C1O` (stereo partly drawn) [Example 5, (+−,cis)-6-Benzo[1,3]dioxol-5-yl-11-hydroxy-8-oxa-5,6,8,9,11a,12-hexahydroindolo[3,2-b]-guinolizine-10-carboxylic acid methyl ester], the IC50 was determined as 80 nM. Regarding `O=C1OCC(=O)N2[C@H](c3ccc4c(c3)OCO4)c3[nH]c4ccccc4c3C[C@H]12` [Example 7, (6R,11aS)-10-Benzo[1,3]dioxol-5-yl-5,5a,10,11-tetrahydro-7-oxa-9a,11-diazabenzo[b]fluorene-6.9-dione], the 50% inhibitory concentration (IC50) came to 50 nM. On the same count and under the same terms, in the case of `CC1=CCC(/C=C/C(=O)N2CCc3c([nH]c4ccccc34)C2c2ccc3c(c2)OCO3)CC1` (stereo not drawn) [Example 20] it was 180 nM; in that of `Cc1cccc2c3c([nH]c12)C(c1ccc2c(c1)OCO2)N(C(=O)/C=C/c1ccc(C(=O)O)cc1)CC3` (stereo not drawn) [Example 21], 3 nM; in that of `O=C(/C=C/c1ccccc1)N1CCc2c([nH]c3cc(Br)ccc23)C1c1ccc2c(c1)OCO2` (stereo not drawn) [Example 22], 26 nM. `O=C(/C=C/c1ccccc1)N1CCc2c([nH]c3cc(-c4ccccc4)ccc23)C1c1ccc2c(c1)OCO2` (stereo not drawn) [Example 23]: the 50% inhibitory concentration (IC50) stood at 690 nM.
